From patent publication US10869878B2, “Vaginal composition and use thereof” (SINGAPORE ZE&Z INTERNATIONAL PTE. LTD, priority 2014, dated 2020)

Tested on: BV-associated bacteria
Experiment: Acid production by BV-associated bacteria in semi-solid agars containing a carbohydrate, anaerobic incubation (Experimental Example 2)
Format: cell-based
Details: 24 hrs anaerobic, 37° C., 1.5% (w/v) carbohydrate, initial pH 5.4
From the text: (1) Grouping in experiment: • (1) Glucose group: containing 1.5% (w/v) glucose, MRS basal medium without carbohydrate, 5% (w/v) calf serum, and 0.45% (w/v) agar, pH5.4; • (2) Fructose group: containing 1.5% (w/v) fructose, MRS basal medium without carbohydrate, 5% (w/v) calf serum, and 0.45% (w/v) agar, pH5.4; • (3) Mannose group: containing 1.5% (w/v) mannose, MRS basal medium without carbohydrate, 5% (w/v) calf serum, and 0.45% (w/v) agar, pH5.4; • (4) Sucrose group: containing 1.5% (w/v) sucrose, MRS basal medium without carbohydrate, 5% (w/v) calf serum, and 0.45% (w/v) agar, pH5.4; • (5) Maltose group: containing 1.5% (w/v) maltose, MRS basal medium without carbohydrate, 5% (w/v) calf serum, and 0.45% (w/v) agar, pH5.4; • (6) Isomaltose group: containing 1.5% (w/v) isomaltose, MRS basal medium without carbohydrate, 5% (w/v) calf serum, and 0.45% (w/v) agar, pH5.4; and • (7) Isomaltulose group: containing 1.5% (w/v) isomaltulose, MRS basal medium without carbohydrate, 5% (w/v) calf serum, and 0.45% (w/v) agar, pH5.4.
The semi-solid agar of each group was formulated essentially following the method described in Composition Example 1, then sterilized, added with calf serum, and packed in test tubes in a specification of 5 g/tube, for late use.
(2) Secretion specimens from BV patients: vaginal secretions from 5 BV patients; and the criteria of inclusion are: • (1) conforming to the Amsel clinical criteria of BV diagnosis, wherein the pH value of the vaginal secretions was >4.6; • (2) after smearing, Gram staining and microscopical examination of vaginal secretions, Nugent score ≥7; and • (3) no other vaginosis and no antimicrobial agent is used within two weeks.
(3) After sampling, the secretion specimens from BV patients meeting the criteria of inclusion were immediately inoculated to the above 7 aseptic semi-solid agars containing a carbohydrate at the bedside and anaerobically incubated at 37° C. for 24 hrs. The pH values of the agar matrices are detected with a precise pH test paper.

| SMILES | pH of the semi-solid agar (Specimen 1) | pH of the semi-solid agar (Specimen 2) | pH of the semi-solid agar (Specimen 3) | pH of the semi-solid agar (Specimen 4) | pH of the semi-solid agar (Specimen 5) |
| --- | --- | --- | --- | --- | --- |
| OC[C@H]1O[C@H](OC[C@H]2OC(O)(CO)[C@@H](O)[C@@H]2O)[C@H](O)[C@@H](O)[C@@H]1O (stereo partly drawn) [Isomaltulose, isomaltulose] | 3.8 | 3.8 | 3.8 | 3.8 | 3.8 |
| OC[C@H]1O[C@@](CO)(O[C@H]2O[C@H](CO)[C@@H](O)[C@H](O)[C@H]2O)[C@@H](O)[C@@H]1O [Sucrose, sucrose] | 4.1-4.4 | 3.8-4.1 | 3.8 | 4.1 | 3.8 |
| OC[C@H]1O[C@H](OC[C@H]2OC(O)[C@H](O)[C@@H](O)[C@@H]2O)[C@H](O)[C@@H](O)[C@@H]1O (stereo partly drawn) [Isomaltose, isomaltose] | 3.8-4.1 | 4.1 | 3.8 | 3.8 | 3.8 |
